Assay results as given in patent US12528790B2, “Amide derivative having antiviral activity” (Shionogi & Co., Ltd., priority 2020, dated 2026).
Read-outs that look alike come from different tables or passages of the source.

System: RSV A2 strain
Experiment: In vitro CPE (CytoPathic Effect) inhibition effect evaluation test, RSV type A
Assay type: cell-based
How it was run: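 EC50 is the concentration giving 50% inhibition of virus-induced cytopathic effect, fitted by nonlinear regression from CellTiter-Glo 2.0 viability. Compounds in 3-fold series were co-incubated at 37 °C with HEp-2 cells and RSV: A2 strain for 4 days, B (Wash/18537) for 5 days; uninfected wells served as control.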

[1] = human respiratory syncytial virus, HEp-2
[2] = inhibitory effect against RSV type A (RSV A2 strain), HEp-2 cells, CPE inhibition, read-out: EC50
[3] = human respiratory syncytial virus, inhibitory effect against RSV type A (RSV A2 strain), HEp-2 cells, CPE inhibition, read-out: EC50

EC50 [3] [nM]	SMILES	further results
–	COc1cc(COc2ccc3c(c2)CCN3c2ncc(C(=O)NC3(C(=O)O)CCCCC3)c(C(F)(F)F)n2)ccn1 [Compound I-27]	EC50 [1]: 10 to 100 nM
–	Cc1ccccc1-n1cc(-c2ccc(C(=O)NC3(C(=O)O)C4CC5CC(C4)CC3C5)c(C(F)(F)F)n2)c2ccc(OC3CCN(c4ncccn4)CC3)cc21 (stereo not drawn) [Compound I-314]	EC50 [2]: < 10 nM
< 10	O=C(NC1(C(=O)O)C2CC3CC(C2)CC1C3)c1cnc(N2CC3(CCOCC3)c3cc(OC4CCC(n5cccn5)CC4)ccc32)nc1C(F)(F)F (stereo not drawn) [Compound I-143]	–
< 10	CC1CN(c2ncccn2)CCC1Oc1ccc2c(-c3ncc(C(=O)NC4(C(=O)O)C5CC6CC(C5)CC4C6)c(C(F)(F)F)n3)cn(C3CCC(F)(F)CC3)c2c1 (single isomer, unassigned) [Compound I-391]	–
–	N#Cc1cccnc1-n1cc(-c2ccc(C(=O)NC3(C(=O)O)C4CC5CC(C4)CC3C5)c(C(F)(F)F)n2)c2ccc(OC3CCN(c4ncccn4)CC3)cc21 (stereo not drawn) [Compound I-338]	EC50 [2]: < 10 nM
–	O=C(NC1(C(=O)O)C2CC3CC(C2)CC1C3)c1cnc(N2CC3(CCOCC3)c3cc(OC4CCN(c5ncccn5)CC4)cc(F)c32)nc1C(F)(F)F (stereo not drawn) [Compound I-332]	EC50 [2]: < 10 nM
< 10	O=C(O)/C=C/C1(NC(=O)c2cnc(N3CC4(CCOCC4)c4cc(OC5CCN(c6ncccn6)CC5)ccc43)nc2C(F)(F)F)C2CC3CC(C2)CC1C3 (stereo not drawn) [Compound I-208]	–
< 10	O=C(NC1(C(=O)O)C2CC3CC(C2)CC1C3)c1cnc(N2CC3(CCOCC3)c3cc(C4CCCC4)ccc32)nc1C(F)(F)F (stereo not drawn) [Compound I-129]	–
< 10	O=C(N[C@@]1(C(=O)O)[C@@H]2C[C@@H]3C[C@H]1C[C@@](F)(C3)C2)c1cnc(N2CC3(CCOCC3)c3cc(OC4CCN(c5ncccn5)CC4)ccc32)nc1C(F)(F)F [Compound I-164]	–
–	O=C(NC1(C(=O)O)CCCCC1)c1cnc(N2CC3(CCN(C4CCC4)CC3)c3cc(OCCC4CCOCC4)ccc32)nc1C(F)(F)F [Compound I-63]	EC50 [1]: < 10 nM
–	O=C(NC1(C(=O)O)C2CC3CC(C2)CC1C3)c1cnc(N2CC3(CCOCC3)c3cc(C4=CCCN(c5ncccn5)C4)ccc32)nc1C(F)(F)F (stereo not drawn) [Compound I-349]	EC50 [2]: < 10 nM
< 10	O=C(NC1(C(=O)O)CCCCC1)c1cnc(N2CC3(CCCCC3)c3cc(OCCC4CCOCC4)ccc32)nc1C(F)(F)F [Compound I-55]	–
–	O=C(NC1(C(=O)O)C2CC3CC(C2)CC1C3)c1cnc(N2CC3(CCOCC3)c3cc(CN4CCC5(CC4)COC5)ccc32)nc1C(F)(F)F (stereo not drawn) [Compound I-352]	EC50 [2]: 10 to 100 nM
10 to 100	O=C(NC1(C(=O)O)C2CC3CC(C2)CC1C3)c1cnc(N2CC3(CCCCC3)c3cc(O[C@H]4CC[C@H](ON=C5CCC(F)(F)CC5)CC4)ccc32)nc1C(F)(F)F (stereo partly drawn) [Compound I-456]	–
10 to 100	CC(=O)OCCCCOc1ccc2c(c1)CCN2c1ncc(C(=O)NC2(C(=O)O)CCCCC2)c(C(F)(F)F)n1 [Compound I-6]	–
10 to 100	O=C(NC1(C(=O)O)C2CC3CC(C2)CC1C3)c1ccc(-c2cn([C@H]3CC[C@H](C(F)(F)F)CC3)c3cc(OC4CCN(c5ncccn5)CC4)ccc23)nc1C(F)(F)F (stereo partly drawn) [Compound I-286]	–
< 10	O=C(NC1(C(=O)O)CCCCC1)c1cnc(N2CC3(CCN(C(=O)OCc4ccccc4)CC3)c3cc(OCCC4CCOCC4)ccc32)nc1C(F)(F)F [Compound I-61]	–
< 10	O=C(NC1(C(=O)O)C2CC3CC(C2)CC1C3)c1cnc(-c2cn(CCc3ccccc3)c3cc(OC4CCN(c5ncc(F)cn5)CC4)ccc23)nc1C(F)(F)F (stereo not drawn) [Compound I-469]	–
10 to 100	O=C(NC1(C(=O)O)CCC1)c1cnc(N2CCc3cc(OC4CCN(c5ncccn5)CC4)ccc32)nc1C(F)(F)F [Compound I-46]	–
10 to 100	COc1ccc2c(c1)CCN2c1ccc(C(=O)NC2(C(=O)O)C3CC4CC(C3)CC2C4)c(C(F)(F)F)c1 (stereo not drawn) [Compound I-124]	–
10 to 100	O=C(NC1(C(=O)O)CCCCC1)c1cnc(N2CCc3cc(OCCNc4ncccn4)ccc32)nc1C(F)(F)F [Compound I-52]	–
< 10	COCCCCOc1ccc2c(c1)CCN2c1ncc(C(=O)NC2(C(=O)O)C3CC4CC(C3)CC2C4)c(C(F)(F)F)n1 (stereo not drawn) [Compound I-22]	–
10 to 100	CN(C)S(=O)(=O)NC(=O)C1(NC(=O)c2cnc(N3CCc4cc(OCCC5CCOCC5)ccc43)nc2C(F)(F)F)CCCCC1 [Compound I-35]	–
< 10	O=C(NC1(C(=O)O)C2CC3CC(C2)CC1C3)c1cnc(N2CC3(CCCCC3)c3cc(OC4CCN(c5ncccn5)CC4)c(F)cc32)nc1C(F)(F)F (stereo not drawn) [Compound I-394]	–
100 to 5000	NC(=O)c1cc(C(=O)NC2(C(=O)O)C3CC4CC(C3)CC2C4)c(C(F)(F)F)nc1N1CCc2cc(OCCC3CCOCC3)ccc21 (stereo not drawn) [Compound I-156]	–
< 10	O=C(NC1(C(=O)O)C2CC3CC(C2)CC1C3)c1cnc(-c2cn(C3CCC(F)(F)CC3)c3cc(OCCN4CC(F)(F)C4)ccc23)nc1C(F)(F)F (stereo not drawn) [Compound I-426]	–
10 to 100	O=C(NC1(C(=O)O)CCCCC1)c1cnc(N2CC3(CCOCC3)c3cc(OCCN4CCOCC4)ccc32)nc1C(F)(F)F [Compound I-85]	–

EC50 [3] [nM]	SMILES	further results
< 10	CC(C)(C)CC(NC(=O)c1cnc(-c2cn(C3CCC(F)(F)CC3)c3cc(OC4CCN(c5ncccn5)CC4)ccc23)nc1C(F)(F)F)C(=O)O (racemic) [Compound I-271]	–
10 to 100	Cn1cc(-c2ncc(C(=O)NC3(C(=O)O)CCCCC3)c(C(F)(F)F)n2)c2ccc(OCCC3CCOCC3)cc21 [Compound I-117]	–
< 10	O=C(NC1(C(=O)O)C2CC3CC(C2)CC1C3)c1cnc(-c2cn(C3CCC(F)(F)CC3)c3cc(O[C@H]4CCN(C5COC5)C4)ccc23)nc1C(F)(F)F (stereo partly drawn) [Compound I-248]	–
–	O=C(NC1(C(=O)O)C2CC3CC(C2)CC1C3)c1cnc(N2CC3(CCOCC3)c3nc(OCCC4CCOCC4)ccc32)nc1C(F)(F)F (stereo not drawn) [Compound I-105]	EC50 [2]: < 10 nM
10 to 100	O=C(NC1(C(=O)NS(=O)(=O)N2CCOCC2)CCCCC1)c1cnc(N2CCc3cc(OCCC4CCOCC4)ccc32)nc1C(F)(F)F [Compound I-38]	–
10 to 100	O=C(NC1(C(=O)O)C2CC3CC(C2)CC1C3)c1cnc(N2CC3(CCCCC3)c3cc(O[C@H]4CC[C@@H](ON=C5CCC(F)(F)CC5)CC4)ccc32)nc1C(F)(F)F (stereo partly drawn) [Compound I-457]	–
< 10	CC(=O)N1CCC(Oc2ccc3c(-c4ncc(C(=O)NC5(C(=O)O)C6CC7CC(C6)CC5C7)c(C(F)(F)F)n4)cn(C4CCC(F)(F)CC4)c3c2)CC1 (stereo not drawn) [Compound I-247]	–
10 to 100	O=C(NC1(C(=O)O)CCC(F)(F)CC1)c1cnc(N2CCc3cc(OC4CCN(c5ncccn5)CC4)ccc32)nc1C(F)(F)F [Compound I-49]	–
< 10	O=C(NC1(C(=O)O)C2CC3CC(C2)CC1C3)c1cnc(N2CC3(CCOCC3)c3cc(-c4ccccc4)ccc32)nc1C(F)(F)F (stereo not drawn) [Compound I-279]	–
< 10	O=C(NC1(C(=O)O)C2CC3CC(C2)CC1C3)c1cnc(N2CC3(CCOCC3)c3cc(F)ccc32)nc1C(F)(F)F (stereo not drawn) [Compound I-284]	–
10 to 100	Cc1cnn(CCOc2ccc3c(c2)CCN3c2ncc(C(=O)NC3(C(=O)O)CCCCC3)c(C(F)(F)F)n2)c1 [Compound I-75]	–
< 10	O=C(NC1(C(=O)O)C2CC3CC(C2)CC1C3)c1cnc(N2CC3(CCOCC3)c3cc(Nc4ccc(C(F)(F)F)cn4)ccc32)nc1C(F)(F)F (stereo not drawn) [Compound I-436]	–
100 to 5000	Cc1ccc2c(c1)C1(CCNCC1)CN2c1ncc(C(=O)NC2(C(N)=O)C3CC4CC(C3)CC2C4)c(C(F)(F)F)n1 (stereo not drawn) [Compound I-172]	–
< 10	NC(=O)C1(NC(=O)c2ccc(N3CC4(CCOCC4)c4cc(OC5CCN(c6ncccn6)CC5)ccc43)nc2C(F)(F)F)C2CC3CC(C2)CC1C3 (stereo not drawn) [Compound I-169]	–
100 to 5000	NCCc1nc(N2CCc3cc(OCCC4CCOCC4)ccc32)nc(C(F)(F)F)c1C(=O)NC1(C(=O)O)C2CC3CC(C2)CC1C3 (stereo not drawn) [Compound I-167]	–
100 to 5000	COc1ccc2c(n1)C1(CCOCC1)CN2c1ncc(C(=O)NC2(C(=O)O)CCCCC2)c(C(F)(F)F)n1 [Compound I-90]	–
< 10	O=C(NC1(C(=O)O)C2CC3CC(C2)CC1C3)c1cnc(N2CC3(CCOCC3)c3cc(Nc4ncccn4)ccc32)nc1C(F)(F)F (stereo not drawn) [Compound I-435]	–
10 to 100	O=C(NC1(C(=O)O)CCCCC1)c1cnc(N2CC3(CC3)c3cc(OCCC4CCOCC4)ccc32)nc1C(F)(F)F [Compound I-44]	–
< 10	COCCCCOc1ccc2c(c1)CCN2c1ncc(C(=O)NC2(C(=O)O)CC3CCC2C3)c(C(F)(F)F)n1 (stereo not drawn) [Compound I-11]	–
–	O=C(NC1(C(=O)O)C2CC3CC(C2)CC1C3)c1ccc(-c2cn(C3CCC(F)CC3)c3cc(O[C@H]4CC[C@H](N5CC(F)(F)C5)CC4)ccc23)nc1C(F)(F)F (single isomer, unassigned) [Compound I-584]	EC50 [2]: < 10 nM
–	CNc1nc(N2CCc3cc(OCCC4CCOCC4)ccc32)nc(C(F)(F)F)c1C(=O)NC1(C(=O)O)C2CC3CC(C2)CC1C3 (stereo not drawn) [Compound I-95]	EC50 [2]: < 10 nM
–	O=C(NC1(C(=O)O)C2CC3CC(C2)CC1C3)c1ccc(N2CC3(CCOCC3)c3cc(OC4CCN(c5ncccn5)CC4)ccc32)nc1C(F)(F)F (stereo not drawn) [Compound I-102]	EC50 [2]: < 10 nM
< 10	O=C(NC1(C(=O)O)C2CC3CC(C2)CC1C3)c1ccc(-c2cn(CC3CC3)c3cc(OC4CCN(c5ncccn5)CC4)ccc23)nc1C(F)(F)F (stereo not drawn) [Compound I-153]	–
< 10	O=C(NC1(C(=O)O)C2CC3CC(C2)CC1C3)c1cnc(-c2cn(C3CCC(F)(F)CC3)c3cc(C(=O)N4CCN(c5ncc(F)cn5)CC4)ccc23)nc1C(F)(F)F (stereo not drawn) [Compound I-433]	–
< 10	Cc1ccc2c(c1)C1(CCOCC1)CN2c1ccc(C(=O)NC2(C(=O)O)C3CC4CC(C3)CC2C4)c(C(F)(F)F)n1 (stereo not drawn) [Compound I-122]	–
–	COc1cccnc1-n1cc(-c2ccc(C(=O)NC3(C(=O)O)C4CC5CC(C4)CC3C5)c(C(F)(F)F)n2)c2ccc(OC3CCN(c4ncccn4)CC3)cc21 (stereo not drawn) [Compound I-325]	EC50 [2]: < 10 nM
< 10	O=C(NC1(C(=O)O)C2CC3CC(C2)CC1C3)c1cnc(-c2cn(C3CCC(F)(F)CC3)c3cc(OC4CCC(F)(F)CC4)ccc23)nc1C(F)(F)F (stereo not drawn) [Compound I-419]	–
